Entries after “also recorded” stand apart in the source; their conditions may differ.
Key:
T4-2 cells [1] = test: 3D lrECM (Matrigel) culture of T4-2 cells: reversion of malignant phenotype, polarity, colony size; type: cell-based, human
Protocol: (§1) For 3D lrECM culture, T4-2 cells were seeded at 21000 cells per cm^2 on top of Matrigel, overlaid with H14 medium containing 5% Matrigel (BD Biosciences, San Jose, Calif.), and treated with 80 nM AG1478, 20 μM TAPI-2 or the relevant vehicle controls.
Silencer™ siRNAs against TACE (Ambion, Austin, Tex.) were also transfected in according to the Reverse Transfection protocol of Invitrogen. siRNAs against the following TACE sense strand sequences were transfected either individually (100 nM) or as a pool (33.3 nM each): […]tt (SEQ ID NO: 2), GCAGCAt[…]tt (SEQ ID NO:3) and […]tt (SEQ ID NO: 4). For 3D culture assays, T4-2 cells were trypsinized post-transfection and plated as single cells in Matrigel. Knockdown was assessed by western blot from a parallel transfection 48 hrs post-transfection. Random siRNA sequence was used as a negative control.
Indirect immunofluorescence. Colonies were solubilized from […] culture by shaking in PBS/0.05M EDTA on ice for 30 mins, fixed in 4% paraformaldehyde, permeabilized, stained with anti-α6-integrin (Chemicon, Temecula, Calif.) and counterstained with DAPI.
(§2) Quantitation of colony size in the 3D lrECM culture was performed by image analysis. Representative images were captured using a digital camera attached to a phase contrast microscope. The high resolution digital images were then analyzed using NIH Image analysis software and the cross-sectional area of each colony was determined for many colonies. This process was hand-curated to ensure that aggregates of colonies were not measured as a single colony.

[2] = tested on: T4-2 cells expressing TGFαΔTM; test: 3D culture of T4-2 cells expressing soluble TGFα (TGFαΔTM): colony size and morphology; type: cell-based, human; conditions: AG1478-treated TGFαΔTM vs proTGFα colonies, P<0.05
Protocol: as §1
(§3) Amphotropic retroviruses were generated by transfection (Lipofectamine; Invitrogen, Carlsbad, Calif.) of the Phoenix packaging cell line (a gift of Dr. Gary Nolan, Stanford) with pBM-IRES-Puro or derivatives containing the AREG or TGFα open reading frames. Two million phoenix cells per 6 cm dish were plated the day prior to transfection and transfected with 2 μg of the appropriate retroviral construct. Retrovirus-containing culture medium was harvested after 48 hrs, supplemented with polybrene to 5 μg/ml and added to HMT3522 cells at 30-50% confluence. Pools of stable infectants were selected in 1 μg/ml puromycin.
(§4) Cloning of pro-AREG and pro-TGFα. The open reading frames of these genes were amplified by PCR from T4-2 cDNA. […]
as §2, with “Representative images were captured using a digital camera attached to a phase contrast microscope.” left out

T4-2 cells [3] = test: 3D culture of T4-2 cells in 80 nM AG1478 with various amounts of EGF; type: cell-based, human; conditions: 80 nM AG1478, four days
Protocol: It was shown that increasing amounts of the EGFR ligand, EGF, attenuates T4-2 cells response to 80 nM of AG 1478. Cells were cultured for four days in 80 nM AG1478 and various amounts of EGF. Above a threshold EGF concentration between 0.1-1 ng/ml ([…]), the EGFR inhibitor can no longer revert the malignant phenotype. Thus, reversion of T4-2 cells by EGFR inhibition is overcome by the presence of picomolar amounts of EGFR ligand.

[4] = tested on: T4-2 cells expressing AREGΔTM; test: 3D culture of T4-2 cells expressing soluble AREG (AREGΔTM): colony size and morphology; type: cell-based, human; conditions: AG1478-treated AREGΔTM vs proAREG colonies, P<0.0001
Protocol: as §1, §3, §4
as §2, with “Representative images were captured using a digital camera attached to a phase contrast microscope.” left out

T4-2 cells [5] = test: Relative proliferation of T4-2 cells with AG 1478 with or without TAPI-2 (sensitization, FIG. 5); type: cell-based, human; conditions: 0.01 μM AG 1478 alone
Protocol: FIG. 5. […] T4-2 cells were allowed to adhere to 48 well plates. Drugs were added at the indicated concentrations. Conditions were analyzed in triplicate. For comparison, all data were normalized to the 100%.
(FIG. 5) In this experiment, T4-2 cells were allowed to adhere to 48 well plates. Drugs, AG 1478 and TAPI-2, were added at various concentrations of 0.001 μM, 0.01 μM, 0.1 μM, 1 μM, 10 μM and 100 μM. Conditions were analyzed in triplicate. For comparison, all data were normalized to the 100%.

[6] = tested on: patients with advanced pancreatic adenocarcinoma; conditions: cited from earlier work
NSCLC = conditions: single agent in NSCLC; cited from earlier work
MAPK = MAPK activation in S1 cells by conditioned medium from T4-2 cells; type: cell-based, human; conditions: pre-incubation of S1 cells with inhibitor
Protocol: Western blotting. Cells were lysed in 50 mM Tris.HCl pH 7.5, 150 mM NaCl, 0.5% NP40 supplemented with protease and phosphatase inhibitors (Calbiochem, San Diego, Calif.) and clarified by centrifugation. 50 μg of each sample was fractionated by SDS-PAGE, transferred to nitrocellulose membranes and probed with antibodies against the following proteins: phospho-MAPK, Total MAPK, phospho-p70S6-Kinase, (Cell Signaling Technology, MA). E-cadherin (BD Biosciences, CA) was used as a loading control. Blots were developed using Supersignal West Femto (Pierce, Rockland, Ill.). Images were captured using a Fluor Chem 8900 imager (Alpha Innotech, San Leandro, Calif.).

[7] = tested on: non-small cell lung cancer (NSCLC) patients; conditions: two large trials, chemotherapy with Gefitinib; cited from earlier work
T4-2 cells [8] = test: T4-2 cell proliferation with Gefitinib in absence or presence of TGFα; type: cell-based, human; conditions: Gefitinib 0 nM, 0.3 nM and 3 nM
Protocol: Control cells were cultured in the absence of TGFα and cells were cultured in the presence of TGFα. Both the control cells and cells grown with TGFα were also cultured with various amounts of Gefitinib at 0 nM, 0.3 nM and 3 nM.

[9] = target: transmembrane precursor of Amphiregulin (pro-AREG) (human (cloned from T4-2 human breast cell cDNA)) (UniProt P15514); test: cell-based or functional assay
S1 cells = test: S1 cell proliferation with recombinant EGFR ligands; type: cell-based, human; conditions: recombinant ligand equimolar to EGF (860 μM)
Protocol: Cell culture All reagents were purchased from SIGMA (St. Louis, Mo.) except where otherwise noted. HMT3522 cells were cultivated on 2D and 3D substrata in H14 medium, a 50:50 mix of DMEM/F12 (UCSF Cell culture Facility, San Francisco, Calif.) supplemented with 5 μg/ml prolactin, 250 ng/ml insulin, 1.4×10^−6 M hydrocortisone, 10^−10 M β-estradiol, 2.6 ng/ml sodium selenite and 10 μg/ml transferrin. S1 cells were additionally supplemented with 10 ng/ml EGF. In various experiments, cells were supplemented with AREG, TACE, TGFα. In all cases, AREG and TGFα were used at the same molar concentration as EGF ([…]).
Proliferation assays. HMT3522 cells were seeded in 96 well plates and treated (in triplicate) as described in the figure legends. To determine relative growth, 0.1 volumes of WST cell proliferation analysis reagent (Roche, Indianapolis, Ind.) was added to the medium and its formazan metabolite was measured by absorbance at 460 nm.

## COc1cc2ncnc(Nc3cccc(Cl)c3)c2cc1OC [AG1478]
T4-2 cells [1]; 3D culture, four days, p<0.001
  colony size (cross-sectional area) vs vehicle: significantly smaller than those formed by cells treated with vehicle alone; also recorded: significantly different from controls
T4-2 cells [1]; 3D lrECM culture, 80 nM AG1478 or 20 μM TAPI-2 vs vehicle
  reversion of the malignant phenotype of T4-2 cells: reversion of the malignant phenotype; also recorded: may be reverted
[2]
  colony size in presence of the EGFR inhibitor: consistently larger than those formed by cells infected with either empty vector or with the membrane-tethered pro-forms
T4-2 cells [3]; 3D culture
  threshold EGF concentration above which the EGFR inhibitor can no longer revert the malignant phenotype: 0.1 to 1 ng/mL
T4-2 cells [3]; molar equivalent
  threshold EGF concentration above which the EGFR inhibitor can no longer revert the malignant phenotype: 8.6 to 86 pM
[4]
  colony size in presence of the EGFR inhibitor: consistently larger than those formed by cells infected with either empty vector or with the membrane-tethered pro-forms
T4-2 cells [5]
  reduction in proliferation, EGFR inhibitor alone: no reduction in proliferation

## C#Cc1cccc(Nc2ncnc3cc(OCCOC)c(OCCOC)cc23)c1 [Erlotinib]
[6]; added to gemcitabine
  median extension in progression-free survival: six
  median increase in overall survival: 14 days
[6]
  survival benefit: statistically significant survival benefit
NSCLC
  increase in median progression-free survival time: two

## COc1cc2ncnc(Nc3ccc(F)c(Cl)c3)c2cc1OCCCN1CCOCC1 [Gefitinib]
MAPK
  activation of MAPK in S1 cells by T4-2 conditioned medium: suppressed
[7]
  survival vs chemotherapy alone: no better than chemotherapy alone
T4-2 cells [8]
  effect of added TGFα on sensitivity of T4-2 cells to Gefitinib (cell proliferation): reduced the effectiveness

## TACE/ADAM17 expressed endogenously in human breast cancer cells (T4-2, MCF-7) (from UniProt P78536 215-824) (enzyme)
[9]
  reduction in AREG shedding from MCF-7 cells after siRNA knockdown of TACE: 90%

## TGFα: recombinant EGFR ligand TGFα
S1 cells
  proliferation of non-malignant S1 cells in place of EGF: can substitute for EGF to promote proliferation

B1: AREG: recombinant EGFR ligand Amphiregulin (protein, UniProt P15514 101-187, looked up)
Amphiregulin: SVRVEQVVKPPQNKTESENTSDKPKRKKKGGKNGKNRRNRKKKNPCNAEFQNFCIHGECKYIEHLEAVTCKCQQEYFGERCGEKSMK
S1 cells
  proliferation of non-malignant S1 cells in place of EGF: can substitute for EGF to promote proliferation

Source: US20090274626A1, “TARGETING TNF-alpha CONVERTING ENZYME(TACE)- DEPENDENT GROWTH FACTOR SHEDDING IN CANCER THERAPY” (The Regents of the University of California, priority 2005, published 2009)
